SMILES strings stand for the structures.

The target of the experiment is T1, Recombinant N-terminal GST tag full-length human HDAC8 (Homo sapiens, UniProt Q9BY41).
T1 construct: Recombinant N-terminal GST tag full-length human HDAC8; purchased SignalChem H90-30G-1000; host or cells: baculovirus in Sf9 insect cells
T1 sequence (Q9BY41 1-377): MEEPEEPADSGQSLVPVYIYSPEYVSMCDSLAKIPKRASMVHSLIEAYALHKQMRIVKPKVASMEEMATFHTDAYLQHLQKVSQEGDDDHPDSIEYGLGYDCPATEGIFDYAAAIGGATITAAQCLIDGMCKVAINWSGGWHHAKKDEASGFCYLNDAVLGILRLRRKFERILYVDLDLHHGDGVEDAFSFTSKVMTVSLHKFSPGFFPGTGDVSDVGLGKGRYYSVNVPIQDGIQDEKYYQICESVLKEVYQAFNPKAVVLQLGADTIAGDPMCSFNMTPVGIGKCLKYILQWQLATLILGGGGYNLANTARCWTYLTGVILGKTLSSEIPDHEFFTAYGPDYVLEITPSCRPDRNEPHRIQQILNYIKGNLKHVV
As to the kind of experiment: HDAC8 probe binding assay, time resolved fluorescence (TRF) format. The following applies: compounds grouped by IC50 range (Table 2). The method, boiled down: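 IC50 values come from four-parameter logistic fits of percent inhibition, scaled between DMSO (high) and no-enzyme (low) controls. Time-resolved fluorescence (ex 340, em 485/535 nm) was read after 16 h at room temperature. Enzyme was Sf9-expressed full-length human HDAC8 with an N-terminal GST tag, in a probe-binding format.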
Regarding `CC(C)Oc1ccc(CN2C(=O)COc3ccc(C(=O)NO)cc32)cc1` [Compound I-330, N-hydroxy-4-(4-isopropoxybenzyl)-3-oxo-3,4-dihydro-2H-benzo[b][1,4]oxazine-6-carboxamide], the IC50 (commonly the concentration needed to halve the response being measured) is at most 0.025 µM.

Turning to `O=C(NO)c1ccc2c(c1)N(Cc1ccc(OC3CCC3)cc1)C(=O)CO2` [Compound I-331, 4-(4-cyclobutoxybenzyl)-N-hydroxy-3-oxo-3,4-dihydro-2H-benzo[b][1,4]oxazine-6-carboxamide], the IC50 is at most 0.025 µM.

Consider `COc1ccc(CN2C(=O)COc3ccc(C(=O)NO)cc32)cn1` [Compound I-332, N-hydroxy-4-((6-methoxypyridin-3-yl)methyl)-3-oxo-3,4-dihydro-2H-benzo[b][1,4]oxazine-6-carboxamide], for which the IC50 is at most 0.025 µM.

`O=C(NO)c1ccc2c(c1)N(Cc1cnc3ccccc3c1)C(=O)CO2` [Compound I-333, N-hydroxy-3-oxo-4-(quinoIin-3-ylmethyl)-3,4-dihydro-2H-benzo[b][1,4]oxazine-6-carboxamide]: the IC50 is at most 0.025 µM.

As for `O=C(NO)c1ccc2c(c1)N(Cc1cc3ccccc3cn1)C(=O)CO2` [Compound I-334, N-hydroxy-4-(isoquinolin-3-ylmethyl)-3-oxo-3,4-dihydro-2H-benzo[b][1,4]oxazine-6-carboxamide], the IC50 is at most 0.025 µM.

Consider `O=C(NO)c1ccc2c(c1)N(Cc1ccc3cccnc3c1)C(=O)CO2` [Compound I-335, N-hydroxy-3-oxo-4-(quinolin-ylmethyl)-3,4-dihydro-2H-benzo[b][1,4]oxazine-6-carboxamide], for which the IC50 is at most 0.025 µM.

On to `O=C(NO)c1ccc2c(c1)N(Cc1ccc3cnccc3c1)C(=O)CO2` [Compound I-336, N-hydroxy-4-(isoquinolin-6-ylmethyl)-3-oxo-3,4-dihydro-2H-benzo[b][1,4]oxazine-6-carboxamide], for which the IC50 is at most 0.025 µM.

As for `O=C(NO)c1ccc2c(c1)N(Cc1ccc3ccncc3c1)C(=O)CO2` [Compound I-337, N-hydroxy-4-(isoquinolin-7-ylmethyl)-3-oxo-3,4-dihydro-2H-benzo[b][1,4]oxazine-6-carboxamide], the IC50 is at most 0.025 µM.

Regarding `O=C(NO)c1ccc2c(c1)N(Cc1ccn3ccnc3c1)C(=O)CO2` [Compound I-338, N-hydroxy-4-(imidazo[1,2-a]pyridin-7-ylmethyl)-3-oxo-3,4-dihydro-2H-benzo[b][1,4]oxazine-6-carboxamide], the IC50 was at most 0.025 µM.

Take `O=C(NO)c1ccc2c(c1)N(Cc1ccn3nccc3c1)C(=O)CO2` [Compound I-339, N-hydroxy-3-oxo-4-(pyrazolo[1,5-a]pyridin-5-ylmethyl)-3,4-dihydro-2H-benzo[b][1,4]oxazine-6-carboxamide]: the IC50 was at most 0.025 µM.

Take `O=C(NO)c1ccc2c(c1)N(Cc1cccc(Cl)c1F)C(=O)CO2` [Compound I-340, 4-(3-chloro-2-fluorobenzyl)-N-hydroxy-3-oxo-3,4-dihydro-2H-benzo[b][1,4]oxazine-6-carboxamide]: the half-maximal inhibitory concentration (IC50) is at most 0.025 µM.

As to `COc1ccc(CN2C(=O)COc3ccc(C(=O)NO)cc32)c(F)c1` [Compound I-341, 4-(2-fluoro-4-methoxybenzyl)-N-hydroxy-3-oxo-3,4-dihydro-2H-benzo[b][1,4]oxazine-6-carboxamide], the IC50 is at most 0.025 µM.

Take `COc1cc(F)cc(CN2C(=O)COc3ccc(C(=O)NO)cc32)c1` [Compound I-342, 4-(3-fluoro-5-methoxybenzyl)-N-hydroxy-3-oxo-3,4-dihydro-2H-benzo[b][1,4]oxazine-6-carboxamide]: the IC50 fell in the range of 0.025 to 0.1 µM.

As to `O=C(NO)c1ccc2c(c1)N(Cc1cc(F)cc(Cl)c1)C(=O)CO2` [Compound I-343, 4-(3-chloro-5-fluorobenzyl)-N-hydroxy-3-oxo-3,4-dihydro-2H-benzo[b][1,4]oxazine-6-carboxamide], the IC50 was at most 0.025 µM.

In the case of `O=C(NO)c1ccc2c(c1)N(Cc1ccc(Cl)cc1F)C(=O)CO2` [Compound I-344, 4-(4-chloro-2-fluorobenzyl)-N-hydroxy-3-oxo-3,4-dihydro-2H-benzo[b][1,4]oxazine-6-carboxamide], the IC50 was at most 0.025 µM.

Take `O=C(NO)c1ccc2c(c1)N(Cc1ccc(Cl)c(C(F)(F)F)c1)C(=O)CO2` [Compound I-345, 4-(4-chloro-3-(trifluorornethyl)benzyl)-N-hydroxy-3-oxo-3,4-dihydro-2H-benzo[b][1,4]oxazine-6-carboxamide]: the IC50 was at most 0.025 µM.

As for `O=C(NO)c1ccc2c(c1)N(Cc1ccc(Cl)c(F)c1)C(=O)CO2` [Compound I-346, 4-(4-chloro-3-fluorobenzyl)-N-hydroxy-3-oxo-3,4-dihydro-2H-benzo[b][1,4]oxazine-6-carboxamide], the IC50 was at most 0.025 µM.

`COc1ccc(Cl)c(CN2C(=O)COc3ccc(C(=O)NO)cc32)c1` [Compound I-347, 4-(2-chloro-5-methoxybenzyl)-N-hydroxy-3-oxo-3,4-dihydro-2H-benzo[b][1,4]oxazine-6-carboxamide]: the IC50 was at most 0.025 µM.

As for `O=C(NO)c1ccc2c(c1)N(Cc1cc(Cl)ccc1F)C(=O)CO2` [Compound I-348, 4-(5-chloro-2-fluorobenzyl)-N-hydroxy-3-oxo-3,4-dihydro-2H-benzo[b][1,4]oxazine-6-carboxamide], the IC50 was at most 0.025 µM.

Consider `O=C(NO)c1ccc2c(c1)N(Cc1cc(Cl)cc(C(F)(F)F)c1)C(=O)CO2` [Compound I-349, 4-(3-chloro-5-(trifluoromethyl)benzyl)-N-hydroxy-3-oxo-3,4-dihydro-2H-benzo[b][1,4]oxazine-6-carboxamide], for which the IC50 was in the range of 0.025 to 0.1 µM.

`COc1cc(CN2C(=O)COc3ccc(C(=O)NO)cc32)ccc1Cl` [Compound I-350, 4-(4-chloro-3-methoxybenzyl)-N-hydroxy-3-oxo-3,4-dihydro-2H-benzo[b][1,4]oxazine-6-carboxamide]: the IC50 was at most 0.025 µM.

Take `O=C(NO)c1ccc2c(c1)N(Cc1ccc(F)c(Cl)c1)C(=O)CO2` [Compound I-351, 4-(3-chloro-4-fluorobenzyl)-N-hydroxy-3-oxo-3,4-dihydro-2H-benzo[b][1,4]oxazine-6-carboxamide]: the IC50 was at most 0.025 µM.

As to `O=C(NO)c1ccc2c(c1)N(Cc1cc(F)ccc1Cl)C(=O)CO2` [Compound I-352, 4-(2-chloro-5-fluorobenzyl)-N-hydroxy-3-oxo-3,4-dihydro-2H-benzo[b][1,4]oxazine-6-carboxamide], the IC50 is at most 0.025 µM.

In the case of `COc1cc(CN2C(=O)COc3ccc(C(=O)NO)cc32)ccc1F` [Compound I-353, 4-(4-fluoro-3-methoxybenzyl)-N-hydroxy-3-oxo-3,4-dihydro-2H-benzo[b][1,4]oxazine-6-carboxamide], the IC50 lay within 0.025 to 0.1 µM.

Consider `O=C(NO)c1ccc2c(c1)N(Cc1cccc(C(F)(F)F)c1Cl)C(=O)CO2` [Compound I-354, 4-(2-chloro-3-(trifluoromethyl)benzyl)-N-hydroxy-3-oxo-3,4-dihydro-2H-benzo[b][1,4]oxazine-6-carboxamide], for which the IC50 is 0.025 to 0.1 µM.

As for `O=C(NO)c1ccc2c(c1)N(Cc1cc(Cl)cc(Cl)c1)C(=O)CO2` [Compound I-355, 4-(3,5-dichlorobenzyl)-N-hydroxy-3-oxo-3,4-dihydro-2H-benzo[b][1,4]oxazine-6-carboxamide], the IC50 was at most 0.025 µM.

Consider `O=C(NO)c1ccc2c(c1)N(Cc1ccc(C(F)(F)F)cc1Cl)C(=O)CO2` [Compound I-356, 4-(2-chloro-4-(trifluoromethyl)benzyl)-N-hydroxy-3-oxo-3,4-dihydro-2H-benzo[b][1,4]oxazine-6-carboxamide], for which the IC50 is at most 0.025 µM.

For `O=C(NO)c1ccc2c(c1)N(Cc1nc3cccnc3s1)C(=O)CO2` [Compound I-359, N-hydroxy-3-oxo-4-(thiazolo[5,4-b]pyridin-2-ylmethyl)-3,4-dihydro-2H-benzo[b][1,4]oxazine-6-carboxamide], the IC50 was at most 0.025 µM.

As to `CN(C)C(=O)c1ccc(CN2C(=O)COc3ccc(C(=O)NO)cc32)cc1` [Compound I-360, 4-(4-(dimethylcarbamoyl)benzyl)-N-hydroxy-3-oxo-3,4-dihydro-2H-benzo[b][1,4]oxazine-6-carboxamide], the IC50 was in the range of 0.025 to 0.1 µM.

Consider `CN(C)c1ccc(CN2C(=O)COc3ccc(C(=O)NO)cc32)cc1` [Compound I-361, 4-(4-(dimethylamino)benzyl)-N-hydroxy-3-oxo-3,4-dihydro-2H-benzo[b][1,4]oxazine-6-carboxamide], for which the IC50 was at most 0.025 µM.

`NC(=O)c1ccc(CN2C(=O)COc3ccc(C(=O)NO)cc32)cc1` [Compound I-362, 4-(4-carbamoylbenzyl)-N-hydroxy-3-oxo-3,4-dihydro-2H-benzo[b][1,4]oxazine-6-carboxamide]: the IC50 is at most 0.025 µM.

On to `O=C(NO)c1ccc2c(c1)N(Cc1cn3ccsc3n1)C(=O)CO2` [Compound I-363, N-hydroxy-4-(imidazo[2,1-b]thiazol-6-ylmethyl)-3-oxo-3,4-dihydro-2H-benzo[b][1,4]oxazine-6-carboxamide], for which the IC50 lay within 0.025 to 0.1 µM.

Regarding `Cc1ccn2cc(CN3C(=O)COc4ccc(C(=O)NO)cc43)nc2c1` [Compound I-364, N-hydroxy-4-((7-methylimidazo[1,2-a]pyridin-2-yl)methyl)-3-oxo-3,4-dihydro-2H-benzo[b][1,4]oxazine-6-carboxamide], the IC50 lay in the range of 0.025 to 0.1 µM.

The record behind these values is patent publication US10370343B2, “[6,6] Fused bicyclic HDAC8 inhibitors” (FORMA Therapeutics, Inc., priority 2015, dated 2019).
